{"source": "patent US10231958B2", "about": "“Methods and compositions for enhancing chemotherapy” (THE BOARD OF REGENTS OF THE UNIVERSITY OF TEXAS SYSTEM, priority 2015, dated 2019)", "key": {"[1]": {"system": "MEFs", "assay": "Metabolomics of GSH metabolites in MEFs", "format": "cell-based, mouse", "details": "MMS 40 μg/mL", "protocol": "(§1) The 2.4×10^6 Kc167 or 2×10^6 MEFs were seeded using complete growth medium on Day 0 in a T-175 cell culture flask and were allowed to grow for three days. After treatments with MMS (40 μg/mL), cells were harvested and centrifuged at 8 and 24 hours, and washed using ice-cold PBS. The cell numbers were adjusted to 90×10^6 (Kc167) or 24×10^6 (MEF) and provided as 100 μL of packed cell pellet for metabolic profiling. Metabolomic profiling and data analysis was provided through mView service performed by Metabolon Inc., Durham, N.C. Five biological replicates of each group were used for analysis at each time point. In addition, detailed changes in nucleotide pools were measured in a separate set of experiments. Nucleotide quantification and Metabolomics Pathway Enrichment Analyses were performed through MetaboAnalyst 2.0 (Xia et al., 2012, Nucleic Acids Res 40(Web Server issue), W127-33; Xia et al., 2009, Nucleic Acids Res 37(Web Server issue), W652-60)."}, "[2]": {"system": "Kc167 cells", "assay": "Metabolomics of GSH metabolites in fly cells", "format": "cell-based, D. melanogaster", "details": "MMS 40 μg/mL", "protocol": "as §1"}, "[3]": {"system": "human endothelial cells", "assay": "In vitro angiogenesis (Angiophase kit, CD31)", "format": "cell-based", "details": "CM from sorafenib treatments", "protocol": "(§2) Quantification of MMP1 and MMP3 content in culture medium was assessed using RayBio-MMP3 and RayBio-MMP1 Elisa Kit (RayBiotech, Inc); IL8 was analyzed by Human IL-8 Elisa kit (Pierce Biotechnology). The levels of prostaglandin E2 (PGE2) were determined using the Prostaglandin E2 EIA Kit Monoclonal (Cayman Chemical Company). Culture media were diluted to fit within the standard curves. For conditioned media (CM) preparation for invasion and in vitro angiogenesis experiments, 12-well plated cells were treated with MMS (or MMS plus inhibitors) for 8 h in the presence of 10% FBS, twice washed with HBSS, and incubated with 700 μL drug/serum-free fresh medium for additional 12 h. Thereafter, the conditioned fresh medium was collected and directly used for migration and invasion experiments in order to reduce freezing associated loss of activity.\nThe Angiophase kit (MBL Inc.) was used to assess the angiogenic potential of conditioned media (CM) from breast cancer cells or the direct effect of pharmaceutical inhibitors (free-drug system) on vessel-like structures formation in vitro. With this kit, human endothelial cells are co-cultured in a specially designed medium to form threadlike tubule structures. These gradually join up to form a network of anastomosing tubules, which resemble the capillary bed found in the CAM assay. Kit-provided cryopreserved co-culture of human endothelial cells were plated and kept for 96 h (proliferative phase) without treatments. Afterwards, the cells were maintained in the presence of conditioned medium from alkylating agent treated cells or control medium for a total of 14 days (angiogenic/vasculogenic phase). Medium was changed each 2 days. At the end of treatments, the cells were fixed and immune-stained for CD31 (PECAM-1), following by incubation with secondary antibody conjugate. ELISA was developed using the soluble substrate p-nitrophenyl-phosphate (p-NPP) whose product was colorimetrically read at 405 nm. After ELISA assays, the wells were washed with dH2O and tubule staining was performed by incubating CD31-stained tubules with the substrate BCIP/NBT, which form insoluble precipitates. Tubules were counted and photographed for qualitative monitoring."}, "[4]": {"system": "MDA-MB231 cells", "assay": "Extracellular matrix invasion assay (Boyden chamber)", "format": "cell-based, human", "details": "CM from sorafenib or sorafenib plus MMS/4-HC vs CM from MMS or 4-HC alone", "protocol": "as §2\nThe invasion potential of breast cancer cells was estimated using the QCM™ 24-Well Cell Invasion Assay Fluorimetric (Millipore). Serum starved cells were trypsinized, trypsin-inhibited, centrifuged, resuspended to 5000 cells/μL, and 50 μL of this suspension (250,000 cells) was seeded on 8 μm pore size inserts coated with extracellular matrix in serum-free conditions. Afterwards, 200 μL conditioned (CM) or fresh medium without serum was added to top chambers. The bottom chamber consisted of 500 μL of DMEM supplemented with 10% FBS as chemoattractant. Cells were allowed to migrate for 24 h at 37° C. under 5% CO2. Invaded cells were detached from the bottom side of the insert, lysed and incubated with CyQuant GR fluorescent Dye for 15 min. Fluorescence was read at Ex/Em=480/520 nm. Percentage of invading cells was compared to cell number standard curves."}, "[5]": {"system": "MDA-MB231 cells", "assay": "Gene expression profiling (RNAseq) in MDA-MB231 cells", "format": "cell-based, human", "protocol": "Human cancer cell-lines treated with different pharmaceutical compounds were profiled by RNA-seq protocol using Illumina HiSeq 2000 system (Illumina, San Diego, Calif.). RNA was harvested 0, 8 and 24 hours post treatment using the RNeasy protocol (Qiagen) and the purity of prepared RNA was determined using Agilent 2100 BioAnalyzer. Total RNA samples about […] were used for sequencing library preparation according to Illumina TruSeq Total RNA Sample Preparation Guide (Illumina Cat. #: RS-122-2201). Each library was bar-coded and then pooled for cluster generation and sequencing run with 100 bp paired-end (PE) sequencing protocol. Short read sequences from RNAseq were first aligned to UCSC hg19 genome build using TopHat2 algorithm (PMID:19289445) and then quantified for gene expression by HTSeq [Anders, 2014]. Genes with lower read counts (determined by examining read counts in non-exonic regions) were removed. Differential expression more than 2 fold was selected as differentially expressed genes (DEGs).\nFor those genes for which expression was higher than noise/background, significant change in expression compared to unexposed (0 h) control, ±2-fold change, was used as cut-off for induction/repression. The lists of genes with altered expression were analyzed using Ingenuity Systems (IPA, Ingenuity Pathway Analyzer, Qiagen), DAVID (PMID:19131956; PMID: 19033363), and Rock Breast Cancer Functional Genomic Database (PMID:20563840) analytical software (p<0.05; FDR<10%) to ensure a good coverage of both metabolic and transduction pathways (due to differences in pathways libraries with the databases). Only pathways related to biological processes/signaling were considered relevant, and the terms were grouped by similarity of the biological for presentation; disease related pathways were discarded. Transcription factor enrichment analysis was performed using the TFactS software (PMID:20215436), which uses an algorithm to compare potential transcription factors involved in the regulation of genes with the input lists. […]"}}, "data": [{"smiles": "COS(C)(=O)=O", "note": "[MMS, methyl-methanesulfonate]", "values": [{"measurement": "increase in methyl-GSH", "setting": "[1]", "result": 100, "unit": "fold"}, {"measurement": "increase in methyl-GSH", "setting": "[2]", "result": 300, "unit": "fold"}]}, {"smiles": "CNC(=O)c1cc(Oc2ccc(NC(=O)Nc3ccc(Cl)c(C(F)(F)F)c3)cc2)ccn1", "note": "[sorafenib, 4-[4-[[4-chloro-3-(trifluoromethyl)phenyl]carbamoylamino]phenoxy]-N-methyl-pyridine-2-carboxamide]", "values": [{"measurement": "angiogenesis with CM from treated cells", "setting": "[3]", "result": "inhibition of angiogenesis"}, {"measurement": "invasion with CM from treated cells", "setting": "[4]", "result": "unable to invade Boyden Chambers"}, {"measurement": "effect on NRF2 and UPR genes", "setting": "[5]; 5 μM sorafenib", "result": "lack of effect"}, {"measurement": "effect on basal gene expression (VEGFA, HES1, MAML3, PLAT, ADAMST1)", "setting": "[5]; 5 μM sorafenib", "result": "decreased basal expression of several genes"}, {"measurement": "effect on MMS-induced inflammatory/invasive genes", "setting": "[5]; 5 μM sorafenib plus MMS", "result": "blocked several of the aforementioned MMS-induced inflammatory/invasive genes"}]}]}
